Results from US11142518B2, “6-pyrimidin-isoindole derivative as ERK1/2 inhibitor” (OTSUKA PHARMACEUTICAL CO., LTD., priority 2017, dated 2021).
≈ marks a conversion by molar mass, not a printed value. Where two headings read alike, the source gives them in different places.

Assays:
[1] = Solubility determinations in non-aqueous solvents; format: physicochemical; conditions: for solubility at 72 h: organic solvent or mixture, thermodynamic from solid, read-out: Estimated maximum solubilities (mg/ml), at 18 to 23° C.
Experimental: Form B of Compound (1), prepared as described in Example 3, was charged to the appropriate solvent (2 ml) at intervals of approximately 1 hour. The solutions were purposefully saturated and allowed to stir over 72 h at 18 to 23° C. After this time, the suspensions were centrifuged, their supernatants were sampled, diluted accordingly and the peak areas of the corresponding analytes were measured by HPLC and compared against those of the standard calibrants. The approximate solubilities were calculated and solubilities were physically checked on an anhydrous solvent free basis to confirm that the results were consistent.
The saturated solutions were centrifuged and 100 μl of the clarified supernatant was added to 250 ml volumetric (ethanol) or 100 ml volumetrics (remainder) and made to volume with sample diluent. The diluted samples were then analysed by HPLC peak area and the estimated maximum solubilities were calculated and are reported in the table below.
To confirm the estimated solubilities were of the right order of magnitude solutions were prepared up to the estimated maximum measured concentrations and the mixtures were stirred overnight under the same conditions to confirm dissolution.

[2] = test system: Human melanoma cell line A375; experiment: Anti-proliferative activity (Alamar Blue); format: cell-based; conditions: A-375, 96 h, A375 cells, 4 days incubation
Experimental: The anti-proliferative activities of the compound of the invention was determined by measuring the ability of the compound of formula (1) to inhibit growth in the Human melanoma cell line A375.
Cell proliferation was determined by measuring the conversion of rezasurin (Alamar Blue) to resorufin in reponse to mitochondrial activity (Nociari, M. M, Shalev, A., Benias, P., Russo, C. Journal of Immunological Methods 1998, 213, 157-167). A375 cells (American Type Culture Collection, Teddington, UK) were grown in Dulbecco's Modified Eagle Medium+10% FBS. Each well of a black 96-well flat-bottomed plate was seeded with 2×10^3 cells in 200 μl of complete culture medium one day before the compound treatment. Cells were incubated with compound in 0.1% (v/v) dimethyl sulfoxide (DMSO) for 4 days before addition of 20 μl Alamar blue. After a further 6 h incubation at 37° C. the plate was read on a Spectramax Gemini reader (Molecular Devices; excitation 535 nm, emission 590 nm). GI50 values were calculated using a sigmoidal dose response equation (Prism GraphPad software, La Jolla, Calif., USA).

[3] = Solubility determinations in purified water and buffers; format: physicochemical; conditions: for Measured solubilities (mg/ml), bound / Measured solubilities (mg/ml), value in brackets / solubility at 24 h: 18-23° C., t = 24 h; for solubility at 24 h: 18 °C, read-out: Measured solubilities (mg/ml), bound
Experimental: The solubilities of crystalline form B and the amorphous form of the compound of formula (1) were determined in purified water and buffers at the same concentration up to 24 h stir time at 18 to 23° C.
The samples of the compound of formula (1) (50 mg) were each suspended in purified water (2 mL) or the appropriate buffer and stirred at ambient temperature (18-23° C.) for 20 to 24 h. After this time the slurries were centrifuged, diluted if appropriate by HPLC sample diluent (acetonitrile/water, 1/1, v/v) and analysed by HPLC peak area. The measured values were compared against a relevant calibration curve for the compound of formula (1). The approximate solubilities were calculated and compensation factors were applied for the appropriate dilution factors and % w/w assays. The dilution factor ensured that the peak area values fell within the desired calibration curve ranges.
The plug of solid that remained in the centrifuge tube was dried in vacuum oven and analysed by XRPD.
The preparations of the buffers used in the study are described below:
pH 1.2—Mix 50 mL of 0.2M potassium chloride solution with 85 mL of 0.2M hydrochloric acid solution.
pH 2—Mix 50 mL of 0.2M potassium chloride solution with 13 mL of 0.2M hydrochloric acid solution.
pH 3—Mix 100 mL of 0.1M potassium hydrogen phthalate with 44.6 mL of 0.1M hydrochloric acid solution.
pH 4—Mix 100 mL of 0.1M potassium hydrogen phthalate with 0.2 mL of 0.1M hydrochloric acid solution.
pH 5—Mix 100 mL of 0.1M potassium hydrogen phthalate with 45.2 mL of 0.1M sodium hydroxide solution.
pH 6—Mix 100 mL of 0.1M potassium dihydrogen orthophosphate with 11.2 mL of 0.1M sodium hydroxide solution.
pH 7—Mix 100 mL of 0.1M potassium dihydrogen orthophosphate with 58.2 mL of 0.1M sodium hydroxide solution.
pH 8—Mix 100 mL of 0.1M potassium dihydrogen orthophosphate with 93.4 mL of 0.1M sodium hydroxide solution.

Compound: COc1cc(F)cc([C@@H](CO)NC(=O)[C@@H](C)N2Cc3ccc(-c4nc(NC5CCOCC5)ncc4Cl)cc3C2=O)c1 [compound of formula (1), (2R)-2-(6-{5-chloro-2-[(oxan-4-yl)amino]pyrimidin-4-yl}-1-oxo-2,3-dihydro-1H-isoindol-2-yl)-N-[(1S)-1-(3-fluoro-5-methoxyphenyl)-2-hydroxyethyl]propanamide]
- Solubility in ethanol, PEG 400 and propylene glycol compared with water ([1]; ethanol, PEG 400 and propylene glycol than in water): significantly greater solubility
- GI50 [2]: 3.4 nM

Compound: COc1cc(F)cc([C@@H](CO)NC(=O)[C@@H](C)N2Cc3ccc(-c4nc(NC5CCOCC5)ncc4Cl)cc3C2=O)c1 [Crystalline Form B of the Compound of Formula (1)] [(2R)-2-(6-{5-chloro-2-[(oxan-4-yl)amino]pyrimidin-4-yl}-1-oxo-2,3-dihydro-1H-isoindol-2-yl)-N-[(1S)-1-(3-fluoro-5-methoxyphenyl)-2-hydroxyethyl]propanamide]
- Measured solubilities (mg/ml), bound ([3]; Purified water): <0.1 mg/mL
- Measured solubilities (mg/ml), bound ([3]; pH 1.2 Buffer): <0.1 mg/mL
- Measured solubilities (mg/ml), bound ([3]; pH 2 Buffer): <0.1 mg/mL
- Measured solubilities (mg/ml), value in brackets ([3]; pH 2 Buffer): (0.0034 mg/ml
- Measured solubilities (mg/ml), bound ([3]; pH 3 Buffer): <0.1 mg/mL
- Measured solubilities (mg/ml), value in brackets ([3]; pH 3 Buffer): (0.0045 mg/ml
- Measured solubilities (mg/ml), bound ([3]; pH 4 Buffer): <0.1 mg/mL
- Measured solubilities (mg/ml), value in brackets ([3]; pH 4 Buffer): (0.0049 mg/ml
- Measured solubilities (mg/ml), bound ([3]; pH 5 Buffer): <0.1 mg/mL
- Measured solubilities (mg/ml), value in brackets ([3]; pH 5 Buffer): (0.0031 mg/ml
- Measured solubilities (mg/ml), bound ([3]; pH 6 Buffer): <0.1 mg/mL
- Measured solubilities (mg/ml), value in brackets ([3]; pH 6 Buffer): (0.0027 mg/ml
- Measured solubilities (mg/ml), bound ([3]; pH 7 Buffer): <0.1 mg/mL
- Measured solubilities (mg/ml), value in brackets ([3]; pH 7 Buffer): (0.0017 mg/ml
- Measured solubilities (mg/ml), bound ([3]; pH 8 Buffer): <0.1 mg/mL
- Measured solubilities (mg/ml), value in brackets ([3]; pH 8 Buffer): (0.0020 mg/ml

Compound: COc1cc(F)cc([C@@H](CO)NC(=O)[C@@H](C)N2Cc3ccc(-c4nc(NC5CCOCC5)ncc4Cl)cc3C2=O)c1 [(2R)-2-(6-{5-chloro-2-[(oxan-4-yl)amino]pyrimidin-4-yl}-1-oxo-2,3-dihydro-1H-isoindol-2-yl)-N-[(1S)-1-(3-fluoro-5-methoxyphenyl)-2-hydroxyethyl]propanamide]
- solubility ([3]; buffers at pH 1.2 to 8.0, 20.5 °C, pH 1.2, aqueous buffer, thermodynamic from solid, buffers at pH 1.2 to 8.0, read-out: Solubility in buffers (conclusion: practically insoluble)): < 100 µg/mL
- solubility at 24 h ([3]; pH 1.2 buffer, pH 1.2, simulated gastric fluid, thermodynamic from solid, pH 1.2 Buffer): ≥ 0.1 mg/mL
- solubility at 24 h ([3]; pH 2 buffer, pH 2, simulated gastric fluid, thermodynamic from solid, pH 2 Buffer): < 0.1 mg/mL
- solubility at 24 h ([3]; pH 3 buffer, pH 3, aqueous buffer, thermodynamic from solid, pH 3 Buffer): < 0.1 mg/mL
- solubility at 24 h ([3]; pH 4 buffer, pH 4, aqueous buffer, thermodynamic from solid, pH 4 Buffer): < 0.1 mg/mL
- solubility at 24 h ([3]; pH 5 buffer, pH 5, aqueous buffer, thermodynamic from solid, pH 5 Buffer): < 0.1 mg/mL
- solubility at 24 h ([3]; pH 6 buffer, pH 6, aqueous buffer, thermodynamic from solid, pH 6 Buffer): < 0.1 mg/mL
- solubility at 24 h ([3]; pH 7 buffer, pH 7, aqueous buffer, thermodynamic from solid, pH 7 Buffer): < 0.1 mg/mL
- solubility at 24 h ([3]; pH 8 buffer, pH 8, aqueous buffer, thermodynamic from solid, pH 8 Buffer): < 0.1 mg/mL
- solubility at 24 h ([3]; purified water, water, thermodynamic from solid, Purified water): < 0.1 mg/mL
- solubility at 72 h ([1]; PEG 400, 18 °C): 229 mg/mL (≈ 392000 µM)
- solubility at 72 h ([1]; ethanol, 18 °C): 337 mg/mL (≈ 577000 µM)
- solubility at 72 h ([1]; glycerol, 18 °C): 5 mg/mL (≈ 8560 µM)
- solubility at 72 h ([1]; propylene glycol, 18 °C): 289 mg/mL (≈ 495000 µM)

Compound: COc1cc(F)cc([C@@H](CO)NC(=O)[C@@H](C)N2Cc3ccc(-c4nc(NC5CCOCC5)ncc4Cl)cc3C2=O)c1 [Amorphous Form of the Compound of Formula (1)] [(2R)-2-(6-{5-chloro-2-[(oxan-4-yl)amino]pyrimidin-4-yl}-1-oxo-2,3-dihydro-1H-isoindol-2-yl)-N-[(1S)-1-(3-fluoro-5-methoxyphenyl)-2-hydroxyethyl]propanamide]
- Measured solubilities (mg/ml), value in brackets ([3]; Purified water): (0.0234 mg/ml
- Measured solubilities (mg/ml), value in brackets ([3]; pH 1.2 Buffer): (0.1249 mg/ml
- Measured solubilities (mg/ml), value in brackets ([3]; pH 2 Buffer): (0.0226 mg/ml
- Measured solubilities (mg/ml), value in brackets ([3]; pH 3 Buffer): (0.0257 mg/ml
- Measured solubilities (mg/ml), value in brackets ([3]; pH 4 Buffer): (0.0418 mg/ml
- Measured solubilities (mg/ml), value in brackets ([3]; pH 5 Buffer): (0.0268 mg/ml
- Measured solubilities (mg/ml), value in brackets ([3]; pH 6 Buffer): (0.0149 mg/ml
- Measured solubilities (mg/ml), value in brackets ([3]; pH 7 Buffer): (0.0136 mg/ml
- Measured solubilities (mg/ml), value in brackets ([3]; pH 8 Buffer): (0.0138 mg/ml
